Series [1] is described as follows: Solubilisation of THP in water and EAR8-II solution (appearance). In kind it is physicochemical. Conditions: visual appearance. As for the experimental part:
To determine a suitable concentration of required EAR8-II for THP encapsulation, different concentrations of EAR8-II, in a range of 0.05–1.0 mg/mL, were prepared and combined with THP at 0.1 mg/mL concentration in aqueous solution. Solubility of THP in water is very low, whereas it can be dissolved and stabilized in an EAR8-II solution at a minimum concentration of 0.2 mg/mL. […] However, at higher EAR8-II concentrations (0.2–0.6 mg/mL), THP molecules were fully dissolved, and consequently, a clear-transparent solution of the peptide-drug complexes formed. At much higher peptide concentrations (above 0.6 mg/mL), THP molecules were still fully soluble, but the excess amount of EAR8-II produced a cloudier solution, with clearly a higher particle size distribution. Note that amphiphilic features of EAR8-II, including the ionic and hydrophobic residues, stimulated binding with hydrophobic molecules of THP through protonation of NH2 to NH3^+ in THP molecules and hydrophobic interactions between alanine residues and aromatic rings in the THP structure. […] Both ionic and hydrophobic interactions are the possible main interactions of EAR8-II and THP, i.e., the protonation of THP in an acidic EAR8-II solution and hydrophobic interaction between THP and hydrophobic side chains of EAR8-II are the dominant forces in complexation of EAR8-II-THP. […]

The next series deals with A549 cells. The experiment in a line: Cellular toxicity, CCK-8 assay, A549. Format: cell-based, Human. To be noted: 24 h. As for the experimental part: (§1) All cell lines, purchased from Cedarlane (Burlington, ON, Canada), were used in the current study and cultured in their respective culture medium as follows: Human Cervical Adenocarcinoma: HeLa (CCL-2) in Eagle's Minimum Essential Medium (EMEM) (ATCC30-2003), Human lung cancer: A549 (CCL-185) in F-12 medium (ATCC30-2004). All medium solutions were prepared with 10% fetal bovine serum (FBS-[…]). Two human cancer cell lines, with 10^4 cells per well concentrations, were seeded in 96-well plates, followed by treatment with different peptide-drug complex ratios for 24 h. Cellular-toxicity experiments were performed with sensitive colorimetric assay called Cell counting kit-8 (CCK-8) (Dojindo Molecular Technologies, Inc. Burlington, ON, Canada). CCK-8 contains highly water-soluble tetrazolium salt (WST-8), which is reduced by dehydrogenase activities in cells to give the yellow color of the formazan dye, which is soluble in culture media. The amount of formazan dye is measured by absorption (O.D.) at 450 nm, which is directly proportional to the number of living cells.

In another series the test system is HeLa cells. Put plainly: Cellular toxicity, CCK-8 assay, HeLa. In kind it is cell-based, Human. Conditions: 24 h. Here is the method:
as §1
Background: Tetrazolium dyes change colour on reduction, which living cells bring about.

Series [2] can be described thus: Dynamic light scattering, particle size of peptide and peptide-drug complexes. In kind it is physicochemical. Conditions: DLS, intensity-based, aqueous solution, EAR8-II 0.5 mg/mL, 25 °C, no drug. Here is the method:
EAR8-II peptide solutions in the concentration range of 0.05–2 mg/mL (0.0547–2.188 mM) were prepared by dissolving peptide lyophilized powder in Milli-Q (18.2 MΩ) water (EMD Millipore, Billerica, MA, USA) followed by bath sonicating for 10 min. Freshly prepared peptide solutions were added to THP to reach fixed [THP] concentrations at 0.1 mg/mL (0.159 mM), followed by mechanical stirring at 900 rpm for 24 h.
The particle size distribution and zeta potential of peptide-drug complexes at different peptide-to-drug ratios were measured by a Zetasizer Nano ZS (Malvern Instruments, Worcestershire, UK). Appropriate settings, viscosity, refractive index, and dispersant solvent were set for each measurement at 25 °C. A small 50 μL volume of the sample was transferred from the vial to a disposable solvent resistant micro cuvette (ZEN0040, Malvern, Worcestershire, UK). The scattered light intensities of the samples were collected at an angle of 173°. This was known as backscatter detection, i.e., the relationship between the size of a particle and its scattered light intensity obtained with the multimodal Contin algorithm, which was provided in the Dispersion Technology Software 5.1 package (Malvern Instruments, Worcestershire, UK).

A short description of series [3]: Tapping mode atomic force microscopy of nanostructure. Format: physicochemical. Conditions: tapping mode AFM, EAR8-II 0.5 mg/mL. Here is the method: Figure 2. Nanostructure of (A) EAR8-II and (C) EAR8-II-THP complex by tapping mode atomic force microscopy; Intensity-based particle size distribution of (B) EAR8-II and (D) EAR8-II-THP complex in aqueous solution by dynamic light scattering. EAR8-II concentration is 0.5 mg/mL, and THP concentration is 0.1 mg/mL.

The nature of series [4]: Steady-state THP fluorescence, encapsulation of THP by EAR8-II. In kind it is physicochemical. To be noted: [THP] = 0.1 mg/mL, fluorescence excitation 480 nm / emission 590 nm, plateau of intensity. As for the experimental part:
The amount of protonated THP in EAR8-II is also determined by measuring the fluorescence intensity of the excitation and emission by THP at different EAR8-II concentrations. Protonated THP absorbs light at 480 nm, and emits light at 590–600 nm. Fluorescence intensity for both the excitation and emission spectra is proportional to the concentration of protonated THP stabilized in the peptide solution. Although the initial concentration of THP was constant in each complex, the amount of protonated THP varied due to the dependency of the THP encapsulation efficiency on peptide concentration.
The THP fluorescence emission spectra were acquired on a photon technology international spectrafluorometer (Type QM4-SE, London, ON, Canada) with a continuous xenon lamp as the light source. The emission spectra were collected in the wavelength range of 500–800 nm, while samples were excited at 480 nm. The maximum emission peak of THP is at a wavelength of 590–600 nm. […] The fluorescence intensity at 590 and 480 nm for emission and excitation were obtained by taking the average of twenty points of fluorescence intensity, respectively. Each fluorescence spectrum was divided by lamp intensity to account for eventual lamp fluctuations. The normalized fluorescence intensity for both emission and excitation spectra at 590 and 480 nm was plotted for various peptide-to-drug ratios.

Experimental findings from article PMC3876047, “Self/Co-Assembling Peptide, EAR8-II, as a Potential Carrier for a Hydrophobic Anticancer Drug Pirarubicin (THP)—Characterization and in-Vitro Delivery” (International Journal of Molecular Sciences, 2013) are described below.

With `COc1cccc2c1C(=O)c1c(O)c3c(c(O)c1C2=O)C[C@@](O)(C(=O)CO)C[C@@H]3O[C@H]1C[C@H](N)[C@H](O[C@@H]2CCCCO2)[C@H](C)O1` [THP, 4-O-tetrahydropyranyladriamycin], the “solubility of THP in water” value in series [1] (water, no peptide, THP 0.1 mg/mL, stirring 24 h) is listed as “very low”. Moreover, the cellular viability in the series on A549 cells (A549, THP at 38 μM in water, no peptide) amounted to 64.9 ± 6.4%; in the series with HeLa cells (THP at 38 μM in water, no peptide), 29.58 ± 3.69%. Moreover, the “cellular toxicity in absence of peptide” value was “non-significant cellular toxicity” in the series with A549 cells (A549, THP control without peptide) and “non-significant cellular toxicity” with HeLa cells (THP control without peptide).
In the case of “Ac-AEAEARAR-NH2 [EAR8-II, Ac-AEAEARAR-NH2]”, the “hydrodynamic diameter of aggregates” value in series [2] was ~ 500 nm. Further, in series [3], the “average height of self-assembled fibres” value was 15 nm and the “average width of self-assembled fibres” value is 10 nm. Moreover, the “minimum EAR8-II concentration at which THP is dissolved and stabilized” value in series [1] (aqueous solution, [THP] = 0.1 mg/mL, stirring at 900 rpm 24 h) came out at 0.2 mg/mL. Besides, the “minimum concentration of peptide required to fully encapsulate THP” value in series [4] is on record as ~ 0.5 mg/mL.
